Source: ChEMBL document CHEMBL5212743, “Selectivity Literature for EUbOPEN Chemogenomics Library wave 3” (2023)
Values belong to the compound of their own block, whether it stands above or below them.

How the values were obtained:
[1] = target: Dual specificity protein kinase CLK1 (Homo sapiens, UniProt P49759); test: Selectivity interaction (KinomeScan (DiscoverX, competition-binding assay)) EUB0000637a CLK1
[2] = target: Vascular endothelial growth factor receptor 1 (Homo sapiens, UniProt P17948); test: Selectivity interaction (KinomeScan (DiscoverX, competition-binding assay)) EUB0000637a FLT1
[3] = target: MAP kinase-interacting serine/threonine-protein kinase 2 (Homo sapiens, UniProt Q9HBH9); test: Selectivity interaction (KinomeScan (DiscoverX, competition-binding assay)) EUB0000637a MKNK2
Sequence of MAP kinase-interacting serine/threonine-protein kinase 2 (Q9HBH9 whole entry): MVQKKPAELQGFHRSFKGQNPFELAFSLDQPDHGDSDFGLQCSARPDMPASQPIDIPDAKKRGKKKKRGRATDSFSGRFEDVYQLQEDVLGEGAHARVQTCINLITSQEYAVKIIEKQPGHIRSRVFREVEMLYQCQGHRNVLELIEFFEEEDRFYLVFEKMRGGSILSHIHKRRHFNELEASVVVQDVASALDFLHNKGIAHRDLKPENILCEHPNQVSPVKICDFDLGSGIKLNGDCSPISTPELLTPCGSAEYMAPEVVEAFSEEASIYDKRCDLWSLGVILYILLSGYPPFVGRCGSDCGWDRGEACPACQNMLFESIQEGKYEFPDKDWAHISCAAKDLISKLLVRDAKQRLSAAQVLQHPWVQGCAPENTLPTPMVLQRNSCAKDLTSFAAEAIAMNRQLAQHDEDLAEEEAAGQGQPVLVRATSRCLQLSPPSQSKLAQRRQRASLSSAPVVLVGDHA

[4] = target: T1, Serine/threonine-protein kinase TAO3 (Homo sapiens) (UniProt Q9H2K8); test: Selectivity interaction (KinomeScan (DiscoverX)) EUB0000710a TAOK3; conditions: at 1 µM
T1 sequence (whole entry): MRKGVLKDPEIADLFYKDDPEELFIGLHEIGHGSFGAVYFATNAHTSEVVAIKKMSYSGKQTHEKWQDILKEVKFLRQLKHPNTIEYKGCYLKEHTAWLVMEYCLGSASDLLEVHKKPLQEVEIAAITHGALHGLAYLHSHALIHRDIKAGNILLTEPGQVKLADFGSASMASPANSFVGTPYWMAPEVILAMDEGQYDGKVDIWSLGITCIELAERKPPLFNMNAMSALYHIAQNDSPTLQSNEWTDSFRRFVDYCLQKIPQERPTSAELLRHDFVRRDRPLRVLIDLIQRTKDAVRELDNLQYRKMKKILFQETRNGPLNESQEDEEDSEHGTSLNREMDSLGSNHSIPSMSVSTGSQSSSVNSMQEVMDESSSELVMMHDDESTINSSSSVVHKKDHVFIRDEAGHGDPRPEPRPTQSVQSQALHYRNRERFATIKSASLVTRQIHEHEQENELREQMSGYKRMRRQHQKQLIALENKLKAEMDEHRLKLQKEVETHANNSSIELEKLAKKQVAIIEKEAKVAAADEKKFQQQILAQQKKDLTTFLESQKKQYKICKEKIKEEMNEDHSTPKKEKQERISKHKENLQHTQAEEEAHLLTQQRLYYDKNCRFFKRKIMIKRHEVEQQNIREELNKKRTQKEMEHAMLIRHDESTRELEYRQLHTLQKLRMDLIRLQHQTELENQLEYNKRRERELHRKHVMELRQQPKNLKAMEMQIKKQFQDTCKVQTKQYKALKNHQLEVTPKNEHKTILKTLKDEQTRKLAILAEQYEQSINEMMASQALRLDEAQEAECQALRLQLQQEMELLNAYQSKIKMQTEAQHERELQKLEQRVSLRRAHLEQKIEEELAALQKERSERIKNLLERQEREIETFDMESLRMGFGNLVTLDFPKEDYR

[5] = target: 5-hydroxytryptamine receptor 2B (Homo sapiens, UniProt P41595); test: Selectivity interaction (GPCR panel (PDSP screen)) EUB0000710a HTR2B
[6] = target: Epithelial discoidin domain-containing receptor 1 (Homo sapiens, UniProt Q08345); test: Selectivity interaction (KinomeScan (DiscoverX)) EUB0000710a DDR1; conditions: at 1 µM
Sequence of Epithelial discoidin domain-containing receptor 1 (Q08345 whole entry, the tested form may be a part): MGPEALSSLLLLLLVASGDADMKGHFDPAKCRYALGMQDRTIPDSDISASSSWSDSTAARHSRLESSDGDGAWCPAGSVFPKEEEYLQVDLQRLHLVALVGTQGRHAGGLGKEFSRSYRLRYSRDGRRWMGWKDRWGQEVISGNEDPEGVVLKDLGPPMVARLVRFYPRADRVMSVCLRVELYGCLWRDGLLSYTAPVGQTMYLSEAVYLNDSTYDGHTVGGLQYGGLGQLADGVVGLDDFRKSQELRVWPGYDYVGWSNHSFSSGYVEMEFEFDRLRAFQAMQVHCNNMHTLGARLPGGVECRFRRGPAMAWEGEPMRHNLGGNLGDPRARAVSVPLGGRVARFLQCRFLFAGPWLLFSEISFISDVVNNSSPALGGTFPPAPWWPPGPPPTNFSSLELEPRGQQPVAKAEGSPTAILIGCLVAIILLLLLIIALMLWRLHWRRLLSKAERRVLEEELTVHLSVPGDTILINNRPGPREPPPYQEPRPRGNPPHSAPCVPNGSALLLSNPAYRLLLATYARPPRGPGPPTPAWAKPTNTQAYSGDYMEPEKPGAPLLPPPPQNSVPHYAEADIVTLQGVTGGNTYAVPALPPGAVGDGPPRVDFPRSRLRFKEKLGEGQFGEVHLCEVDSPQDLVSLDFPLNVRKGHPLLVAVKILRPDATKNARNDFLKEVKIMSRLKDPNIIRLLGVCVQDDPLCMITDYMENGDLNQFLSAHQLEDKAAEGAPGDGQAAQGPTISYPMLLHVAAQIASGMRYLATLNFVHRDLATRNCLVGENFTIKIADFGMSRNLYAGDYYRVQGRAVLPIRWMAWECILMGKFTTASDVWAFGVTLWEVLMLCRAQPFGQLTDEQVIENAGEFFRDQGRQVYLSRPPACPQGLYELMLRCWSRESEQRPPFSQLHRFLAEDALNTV

[7] = target: Serine/threonine-protein kinase TNNI3K (Homo sapiens) (UniProt Q59H18); test: Selectivity interaction (KinomeScan (DiscoverX)) EUB0000710a TNNI3K; conditions: at 1 µM
Sequence of Serine/threonine-protein kinase TNNI3K (Homo sapiens) (Q59H18 whole entry, canonical isoform): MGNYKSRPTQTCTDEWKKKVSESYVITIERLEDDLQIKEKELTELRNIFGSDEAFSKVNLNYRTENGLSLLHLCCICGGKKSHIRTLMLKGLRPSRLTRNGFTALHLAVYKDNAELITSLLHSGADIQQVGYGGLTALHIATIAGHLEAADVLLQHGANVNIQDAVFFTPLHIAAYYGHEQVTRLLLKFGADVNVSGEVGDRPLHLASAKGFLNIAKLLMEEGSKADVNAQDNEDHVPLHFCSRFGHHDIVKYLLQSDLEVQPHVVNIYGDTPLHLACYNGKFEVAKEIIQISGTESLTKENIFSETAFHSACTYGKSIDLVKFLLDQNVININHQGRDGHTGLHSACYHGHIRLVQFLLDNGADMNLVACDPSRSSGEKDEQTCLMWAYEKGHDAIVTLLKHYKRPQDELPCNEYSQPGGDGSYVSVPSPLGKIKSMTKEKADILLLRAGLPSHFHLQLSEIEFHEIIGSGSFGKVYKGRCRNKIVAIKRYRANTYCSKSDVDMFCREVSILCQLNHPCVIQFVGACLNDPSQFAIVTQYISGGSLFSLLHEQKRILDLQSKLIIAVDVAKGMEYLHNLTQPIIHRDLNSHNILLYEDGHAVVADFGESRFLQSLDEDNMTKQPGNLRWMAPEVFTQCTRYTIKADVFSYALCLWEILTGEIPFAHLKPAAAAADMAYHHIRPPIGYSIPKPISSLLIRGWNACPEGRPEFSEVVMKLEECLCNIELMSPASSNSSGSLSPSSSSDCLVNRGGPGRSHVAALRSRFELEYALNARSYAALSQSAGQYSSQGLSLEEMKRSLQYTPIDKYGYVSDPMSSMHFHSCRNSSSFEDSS

[8] = system: Phosphatidylinositol 4,5-bisphosphate 3-kinase catalytic subunit alpha isoform (Homo sapiens), P42336 [Q546K]; test: Selectivity interaction (KinomeScan (DiscoverX)) EUB0000710a PIK3CA; conditions: at 1 µM
Sequence of Phosphatidylinositol 4,5-bisphosphate 3-kinase catalytic subunit alpha isoform (Homo sapiens), P42336 [Q546K] (P42336 whole entry Q546K, canonical isoform): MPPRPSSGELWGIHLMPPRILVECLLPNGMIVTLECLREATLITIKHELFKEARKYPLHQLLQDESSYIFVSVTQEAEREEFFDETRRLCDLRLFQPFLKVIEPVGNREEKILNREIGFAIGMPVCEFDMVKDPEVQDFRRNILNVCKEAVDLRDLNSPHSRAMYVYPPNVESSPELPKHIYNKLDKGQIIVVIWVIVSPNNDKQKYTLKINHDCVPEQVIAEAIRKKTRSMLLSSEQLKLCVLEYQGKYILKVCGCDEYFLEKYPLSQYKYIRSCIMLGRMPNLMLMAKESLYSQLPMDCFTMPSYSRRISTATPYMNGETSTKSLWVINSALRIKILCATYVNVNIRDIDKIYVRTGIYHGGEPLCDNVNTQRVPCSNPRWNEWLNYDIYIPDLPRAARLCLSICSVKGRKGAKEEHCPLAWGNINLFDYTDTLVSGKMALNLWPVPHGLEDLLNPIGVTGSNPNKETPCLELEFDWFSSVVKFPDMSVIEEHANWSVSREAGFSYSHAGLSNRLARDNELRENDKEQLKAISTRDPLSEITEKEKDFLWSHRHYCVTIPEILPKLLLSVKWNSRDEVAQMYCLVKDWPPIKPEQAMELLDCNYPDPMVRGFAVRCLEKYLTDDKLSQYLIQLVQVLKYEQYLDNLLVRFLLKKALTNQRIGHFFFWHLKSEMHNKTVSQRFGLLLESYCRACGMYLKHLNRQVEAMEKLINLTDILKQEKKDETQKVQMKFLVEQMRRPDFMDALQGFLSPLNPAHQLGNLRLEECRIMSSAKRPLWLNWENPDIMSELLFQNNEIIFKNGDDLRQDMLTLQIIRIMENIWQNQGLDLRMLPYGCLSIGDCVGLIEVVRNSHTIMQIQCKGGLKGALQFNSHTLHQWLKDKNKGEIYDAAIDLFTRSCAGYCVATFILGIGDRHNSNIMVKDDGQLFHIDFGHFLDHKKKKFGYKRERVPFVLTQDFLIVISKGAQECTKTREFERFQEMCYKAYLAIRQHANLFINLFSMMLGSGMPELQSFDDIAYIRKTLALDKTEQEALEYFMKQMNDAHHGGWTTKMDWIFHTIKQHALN

[9] = target: T2, Myosin-IIIb (Homo sapiens) (UniProt Q8WXR4); test: Selectivity interaction (KinomeScan (DiscoverX)) EUB0000710a MYO3B; conditions: at 1 µM
T2 sequence (whole entry): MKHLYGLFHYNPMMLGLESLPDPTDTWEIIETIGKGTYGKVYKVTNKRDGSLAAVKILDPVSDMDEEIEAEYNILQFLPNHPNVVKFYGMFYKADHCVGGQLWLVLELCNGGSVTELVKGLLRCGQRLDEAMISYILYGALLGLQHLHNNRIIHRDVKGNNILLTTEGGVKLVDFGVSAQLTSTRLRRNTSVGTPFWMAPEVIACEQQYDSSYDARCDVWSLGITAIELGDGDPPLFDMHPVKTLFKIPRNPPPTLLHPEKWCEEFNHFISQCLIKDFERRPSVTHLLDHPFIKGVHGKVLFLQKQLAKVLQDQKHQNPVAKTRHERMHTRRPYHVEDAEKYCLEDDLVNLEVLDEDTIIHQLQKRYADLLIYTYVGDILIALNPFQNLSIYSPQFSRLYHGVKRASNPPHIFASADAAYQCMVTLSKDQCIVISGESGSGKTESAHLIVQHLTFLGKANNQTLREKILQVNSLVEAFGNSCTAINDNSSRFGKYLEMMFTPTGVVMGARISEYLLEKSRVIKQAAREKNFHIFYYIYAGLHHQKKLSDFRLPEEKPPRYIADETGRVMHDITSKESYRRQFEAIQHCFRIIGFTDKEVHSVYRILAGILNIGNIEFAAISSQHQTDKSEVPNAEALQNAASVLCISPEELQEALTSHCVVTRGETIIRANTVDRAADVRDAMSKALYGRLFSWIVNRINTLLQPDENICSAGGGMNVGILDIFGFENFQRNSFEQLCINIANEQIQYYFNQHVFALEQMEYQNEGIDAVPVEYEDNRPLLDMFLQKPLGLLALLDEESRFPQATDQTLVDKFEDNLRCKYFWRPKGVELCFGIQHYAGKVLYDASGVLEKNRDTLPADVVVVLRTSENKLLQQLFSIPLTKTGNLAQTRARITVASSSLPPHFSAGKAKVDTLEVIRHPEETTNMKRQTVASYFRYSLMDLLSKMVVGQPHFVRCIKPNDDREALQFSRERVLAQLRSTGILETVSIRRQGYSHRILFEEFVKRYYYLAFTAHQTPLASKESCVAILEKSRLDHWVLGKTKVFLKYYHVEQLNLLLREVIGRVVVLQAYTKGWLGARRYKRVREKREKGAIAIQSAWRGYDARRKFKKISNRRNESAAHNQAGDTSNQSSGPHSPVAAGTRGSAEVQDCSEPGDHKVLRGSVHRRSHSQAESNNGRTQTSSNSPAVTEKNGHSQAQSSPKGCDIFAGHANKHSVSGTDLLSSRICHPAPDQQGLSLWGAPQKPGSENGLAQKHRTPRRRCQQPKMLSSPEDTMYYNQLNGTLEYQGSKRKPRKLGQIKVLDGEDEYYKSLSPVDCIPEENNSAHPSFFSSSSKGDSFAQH

[10] = system: Epidermal growth factor receptor (Homo sapiens), P00533 [L861Q]; test: Selectivity interaction (KinomeScan (DiscoverX)) EUB0000710a EGFR; conditions: at 1 µM
[11] = target: Phosphatidylinositol 4,5-bisphosphate 3-kinase catalytic subunit alpha isoform (Homo sapiens, UniProt P42336); test: Selectivity interaction (KinomeScan (DiscoverX)) EUB0000326a PIK3CA; conditions: Inhibition of LnCaP-FGC cell proliferation > […] µM (PMID: 28953875);, Selectivity Remarks Screened at 1 µM (in vitro, >[…]-fold less potent then probe A-485), Selectivity Source Knowledge ht
Sequence of Phosphatidylinositol 4,5-bisphosphate 3-kinase catalytic subunit alpha isoform (P42336 whole entry, canonical isoform): as the sequence (P42336 whole entry Q546K, canonical isoform) above, with K546Q counted along it

[12] = target: High affinity nerve growth factor receptor (Homo sapiens, UniProt P04629); test: Selectivity interaction (KinomeScan (DiscoverX)) EUB0000326a NTRK1; conditions: Inhibition of LnCaP-FGC cell proliferation > […] µM (PMID: 28953875);, Selectivity Remarks Screened at 1 µM (in vitro, >[…]-fold less potent then probe A-485), Selectivity Source Knowledge ht
[13] = target: T3, Ephrin type-B receptor 6 (Homo sapiens) (UniProt O15197); test: Selectivity interaction (KinomeScan (DiscoverX)) EUB0000326a EPHB6; conditions: Inhibition of LnCaP-FGC cell proliferation > […] µM (PMID: 28953875);, Selectivity Remarks Screened at 1 µM (in vitro, >[…]-fold less potent then probe A-485), Selectivity Source Knowledge ht
T3 sequence (whole entry): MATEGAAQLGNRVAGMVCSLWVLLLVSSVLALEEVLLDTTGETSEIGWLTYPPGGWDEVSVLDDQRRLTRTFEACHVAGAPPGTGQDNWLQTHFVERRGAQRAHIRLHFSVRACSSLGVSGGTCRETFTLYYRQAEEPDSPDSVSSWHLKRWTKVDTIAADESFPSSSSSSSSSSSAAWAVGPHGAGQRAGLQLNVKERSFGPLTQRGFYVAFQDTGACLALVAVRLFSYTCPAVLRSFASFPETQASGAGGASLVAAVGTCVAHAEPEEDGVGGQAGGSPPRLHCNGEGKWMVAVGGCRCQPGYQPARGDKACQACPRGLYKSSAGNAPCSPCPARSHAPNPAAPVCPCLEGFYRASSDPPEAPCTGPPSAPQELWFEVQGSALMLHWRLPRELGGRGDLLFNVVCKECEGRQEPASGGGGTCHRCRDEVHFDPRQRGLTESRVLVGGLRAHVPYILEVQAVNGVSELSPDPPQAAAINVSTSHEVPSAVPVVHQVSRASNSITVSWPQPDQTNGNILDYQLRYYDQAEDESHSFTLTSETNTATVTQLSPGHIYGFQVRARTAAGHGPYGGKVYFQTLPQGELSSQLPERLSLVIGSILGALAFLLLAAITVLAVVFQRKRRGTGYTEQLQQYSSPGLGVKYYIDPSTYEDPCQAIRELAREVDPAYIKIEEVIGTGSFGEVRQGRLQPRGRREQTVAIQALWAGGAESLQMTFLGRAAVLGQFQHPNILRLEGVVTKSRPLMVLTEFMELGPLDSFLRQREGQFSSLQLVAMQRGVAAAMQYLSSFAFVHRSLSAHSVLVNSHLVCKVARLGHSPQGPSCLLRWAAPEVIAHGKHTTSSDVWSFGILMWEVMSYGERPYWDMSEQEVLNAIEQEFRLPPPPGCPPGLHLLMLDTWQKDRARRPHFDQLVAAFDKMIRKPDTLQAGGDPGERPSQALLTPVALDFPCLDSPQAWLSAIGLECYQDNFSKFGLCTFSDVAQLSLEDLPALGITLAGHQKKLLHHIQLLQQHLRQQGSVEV

[14] = target: T4, Gamma-aminobutyric acid receptor subunit alpha-1 (Homo sapiens, UniProt P14867); test: Selectivity interaction (GPCR panel (PDSP screen)) EUB0000326a GABRA1
T4 sequence (P14867 whole entry): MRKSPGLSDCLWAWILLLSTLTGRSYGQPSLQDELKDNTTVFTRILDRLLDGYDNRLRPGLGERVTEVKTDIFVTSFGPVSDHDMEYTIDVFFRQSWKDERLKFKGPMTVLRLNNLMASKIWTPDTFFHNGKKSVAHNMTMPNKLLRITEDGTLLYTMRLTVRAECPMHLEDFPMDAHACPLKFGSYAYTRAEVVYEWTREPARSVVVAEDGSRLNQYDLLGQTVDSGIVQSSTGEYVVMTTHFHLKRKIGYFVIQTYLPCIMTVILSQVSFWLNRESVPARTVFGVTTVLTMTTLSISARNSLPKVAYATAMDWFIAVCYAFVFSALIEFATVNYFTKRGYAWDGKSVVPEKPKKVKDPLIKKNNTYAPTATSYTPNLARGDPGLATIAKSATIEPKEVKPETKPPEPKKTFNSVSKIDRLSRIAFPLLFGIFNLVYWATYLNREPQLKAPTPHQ

Sequence of Dual specificity protein kinase CLK1 (P49759 whole entry): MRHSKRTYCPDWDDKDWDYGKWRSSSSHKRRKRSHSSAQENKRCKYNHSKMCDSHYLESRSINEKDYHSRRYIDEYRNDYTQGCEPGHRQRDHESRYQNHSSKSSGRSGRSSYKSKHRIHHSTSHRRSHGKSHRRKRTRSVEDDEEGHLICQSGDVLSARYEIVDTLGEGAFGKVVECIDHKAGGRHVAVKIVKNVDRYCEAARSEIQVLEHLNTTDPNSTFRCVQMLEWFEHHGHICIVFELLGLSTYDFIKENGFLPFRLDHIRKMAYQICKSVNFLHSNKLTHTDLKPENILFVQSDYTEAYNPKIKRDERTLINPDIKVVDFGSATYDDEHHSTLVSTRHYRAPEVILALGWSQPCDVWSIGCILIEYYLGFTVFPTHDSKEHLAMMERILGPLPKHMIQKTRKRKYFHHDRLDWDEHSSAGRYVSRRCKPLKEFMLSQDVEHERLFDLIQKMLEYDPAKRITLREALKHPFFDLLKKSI

Kd [1]: 310 nM
Kd [2]: 210 nM
Kd [3]: 330 nM
Structure (SMILES): NC(=O)c1ccc2nc(-c3ccc(C4(N)CCC4)cc3)c(-c3ccccc3)n2n1 [BAY-1125976]

% of control [4]: 54%
Ki [5]: 1880 nM
% of control [6]: 47%
% of control [7]: 51%
% of control [8]: 41%
% of control [9]: 49%
% of control [10]: 39.5%
Structure (SMILES): Cc1cnc(-c2cc(Cl)ccc2F)cc1-n1c(=O)n(CC(N)=O)c2ccccc21 [Al11]

% of control [11]: 28%
% of control [12]: 41%
% of control [13]: 0%
Ki [14]: 2580 nM
Structure (SMILES): CNC(=O)Nc1ccc2c(c1)[C@@]1(CC2)OC(=O)N(CC(=O)N(Cc2ccc(F)cc2)[C@@H](C)C(F)(F)F)C1=O [A-486]
